In patent US20150328116A1, “Oral Care Composition Containing Ionic Liquids” (COLGATE-PALMOLIVE COMPANY, priority 2012, published 2015):
“Also recorded” adds a separate entry of the source. Where two headings read alike, the source gives them in different places.

Columns and labels:
[1] = tested on: 3-day old biofilm of artificial mouth consortium of bacteria (A. naeslundii, S. oralis, V. parvula, L. casei, F. nucleatum) and S. mutans; assay: In vitro removal of a 3-day old biofilm (optical density reduction); format: cell-based; conditions: for Percent Biofilm Removal (BMIM Cationic Series): […] BMIM-based ionic liquids in base prototype mouth rinse of Table 1
[2] = In-vitro removal of tooth stains / teeth whitening (L*a*b*); parameters: species or system human; conditions: 1M in prototype whitening mouthwash base (Table 7); teeth soaked one hour
A. viscosus [3] = assay: Short Interval Kill Test (SIKT); format: cell-based; conditions: 0.3, 0.6 and 1 wt % in prototype mouth rinse of Table 9
From the text: SIKT determines the kill effect of a test article at a predetermined exposure time. […] The reaction was neutralized after 30 seconds by adding a neutralizing broth. The reaction mixture was further diluted and plated on MCA (Microbial Count Agar) plates for viable bacterial count.

A. viscosus [4] = assay: Minimum inhibitory concentration; format: cell-based; conditions: Actinomyces viscosus; 24 hours incubation, optical density at 610 nm
A. viscosus [5] = assay: Growth inhibition of A. viscosus (optical density over time); format: cell-based
Experimental: DMIM chloride was incorporated into a prototype mouth rinse as illustrated in Table 9. […] The growth inhibition was measured as a change in optical density over time.

Dental plaque samples = assay: Dissolution of plaque (visual pellet after centrifugation); conditions: water-insoluble plaque, ionic liquid added, vortex mixed at room temperature, centrifuged at 13,000 g
[6] = […] ionic liquid in base prototype mouth rinse of Table 1, 15 minutes, relative to water
[7] = direct comparison between EMIM and BMIM with different anions

1,2,3-trimethylimidazolium methyl sulfate [TMIM MeSO4]
Percent Biofilm Removed (Other Ionic Liquids) [1]: 51.8%
Percent Removal of a 3-day Oral Biofilm [1]: 51.8%

1-butyl-3-methylimidazolium methyl sulfate [BMIM MeSO4]
Percent Biofilm Removal (BMIM Cationic Series) [1]: 53.9%
Percent Removal of a 3-day Oral Biofilm [1, 6]: 53.9%

1-butyl-3-methylimidazolium octyl sulfate [BMIM Octyl SO4]
Percent Biofilm Removal (BMIM Cationic Series) [1]: 58.6%
Percent Removal of a 3-day Oral Biofilm [1, 6]: 58.6%

1-ethyl-3-methylimidazolium diethyl phosphate [EMIM diethyl PO4]
Percent Removal of a 3-day Oral Biofilm [1, 6]: 52.7%

1-ethyl-3-methylimidazolium ethyl sulfate [EMIM Ethyl SO4]
Percent Removal of a 3-day Oral Biofilm [1]: 48.1%
ΔE [2]: 4.41
ΔL [2]: 3.40
ΔW [2]: −2.99

C=CCn1cc[n+](C)c1.[Cl-] [AMIM Cl, 1-allyl-3-methylimidazolium chloride]
Percent Biofilm Removed (Other Ionic Liquids) [1]: 44.8%
Percent Removal of a 3-day Oral Biofilm [1]: 44.8%
biofilm removal, comparison in words [1]: effective in removing biofilm

CCCCn1cc[n+](C)c1.[Br-] [BMIM Br, 1-butyl-3-methylimidazolium bromide]
Percent Biofilm Removal (BMIM Cationic Series) [1]: 48.0%
Percent Removal of a 3-day Oral Biofilm [1, 6]: 48.0%
Percent Biofilm Removed (EMIM vs BMIM comparison) [1, 7]: 48.0%

CCCCn1cc[n+](C)c1.[Cl-] [BMIM Cl, 1-butyl-3-methylimidazolium chloride]
Percent Biofilm Removal (BMIM Cationic Series) [1]: 43.8%
Percent Removal of a 3-day Oral Biofilm [1, 6]: 43.8%
Percent Biofilm Removed (EMIM vs BMIM comparison) [1, 7]: 43.8%

CC(=O)[O-].CCCCn1cc[n+](C)c1 [BMIM OAc, 1-butyl-3-methylimidazolium acetate]
Percent Biofilm Removal (BMIM Cationic Series) [1]: 55.8%
Percent Removal of a 3-day Oral Biofilm [1, 6]: 55.9%
Percent Biofilm Removed (EMIM vs BMIM comparison) [1, 7]: 55.8%

CCCCCCCCCCn1cc[n+](C)c1.[Cl-] [DMIM Cl, 1-decyl-3-methylimidazolium chloride]
time to kill A. viscosus (A. viscosus [3]): ≤ 30 s
MIC (A. viscosus [4]): 125 µg/mL
growth inhibition of A. viscosus (A. viscosus [5]; 0.312 wt % in prototype mouth rinse): Growth inhibition of A.viscosus is maintained
growth inhibition of A. viscosus (A. viscosus [5]; 1 wt % in prototype mouth rinse (Table 9), versus mouthwash containing cetylpyridinium chloride): greater growth inhibition of A. viscosus than a mouthwash containing cetylpyridinium chloride
Percent Removal of a 3-day Oral Biofilm [1, 6]: 57.3%
biofilm removal, comparison in words ([1]; comment on Tables 2 and 6, listed as DMIM chloride): significantly more effective in removing biofilm than EMIM chloride and BMIM chloride; also recorded: most effective in removing biofilm
Percent Biofilm Removed (Other Ionic Liquids) ([1]; protocol of Example 2): 57.3%

CCn1cc[n+](C)c1.[Br-] [EMIM Br, 1-ethyl-3-methylimidazolium bromide]
Percent Removal of a 3-day Oral Biofilm [1, 6]: 48.6%
Percent Biofilm Removed (EMIM vs BMIM comparison) [1, 7]: 48.6%
plaque dissolution (size of the plaque pellet) (Dental plaque samples): size of the plaque pellet is reduced

CCn1cc[n+](C)c1.[Cl-] [EMIM Cl, 1-ethyl-3-methylimidazolium chloride]
Percent Biofilm Removed (EMIM vs BMIM comparison) [1]: 44.3%
Percent Removal of a 3-day Oral Biofilm [1]: 44.3%

CC(=O)[O-].CCn1cc[n+](C)c1 [EMIM OAc, 1-ethyl-3-methylimidazolium acetate]
Percent Removal of a 3-day Oral Biofilm [1, 6]: 52.1%
Percent Biofilm Removed (EMIM vs BMIM comparison) [1, 7]: 52.1%

CCn1cc[n+](C)c1.Cc1ccc(S(=O)(=O)[O-])cc1 [EMIM Tosylate, 1-ethyl-3-methylimidazolium tosylate]
Percent Removal of a 3-day Oral Biofilm [1, 6]: 59.5%

COS(=O)(=O)[O-].Cc1cc[n+](C)n1C [MMMPz MeSO4, 1,2,3-trimethylpyrazolium (MMMPZ) methyl sulfate]
Percent Removal of a 3-day Oral Biofilm [1, 6]: 57.8%
Percent Biofilm Removed (Other Ionic Liquids) ([1]; protocol of Example 2): 57.9%

tris(2-hydroxyethyl)methylammonium sulfate [MTEOA MeSO4]
Percent Biofilm Removed (Other Ionic Liquids) [1]: 52.8%
Percent Removal of a 3-day Oral Biofilm [1]: 52.8%
